Results taken from patent publication US8618303B2, “Pyrrolidine derivatives” (Hoffmann-La Roche Inc., priority 2011, dated 2013).
Like-named read-outs stand apart in the source and are kept apart here.

Target: human NK3 receptor (Homo sapiens (Human), UniProt P29371)
Assay: [3H]SR142801 competition binding assay
Protocol: hNK3 receptor binding experiment were performed using [^3H]SR142801 (Catalog No. TRK1035, specific activity: 74.0 Ci/mmol, Amersham, GE Healthcare UK limited, Buckinghamshire, UK) and membrane isolated from HEK293 cells transiently expressing recombinant human NK3 receptor. After thawing, the membrane homogenates were centrifuged at 48,000×g for 10 min at 4° C., the pellets were resuspended in the 50 mM Tris-HCl, 4 mM MnCl2, 1 μM phosphoramidon, 0.1% BSA binding buffer at pH 7.4 to a final assay concentration of 5 μg protein/well. […] At the end of the incubation, membranes were filtered onto unitfilter (96-well white microplate with bonded GF/C filter preincubated 1 h in 0.3% PEI+0.3% BSA, Packard BioScience, Meriden, Conn.) with a Filtermate 196 harvester (Packard BioScience) and washed 4 times with ice-cold 50 mM Tris-HCl, pH 7.4 buffer. Nonspecific binding was measured in the presence of 10μM SB222200 for both radioligands. The radioactivity on the filter was counted (5 min) on a Packard Top-count microplate scintillation counter with quenching correction after addition of 45 μl of microscint 40 (Canberra Packard S.A., Ziirich, Switzerland) and shaking for 1 h. Inhibition curves were fitted according to the Hill equation: y=100/(1+(x/IC50), where nH=slope factor using Excel-fit 4 software (Microsoft). IC50 values were derived from the inhibition curve and the affinity constant (Ki) values were calculated using the Cheng-Prussoff equation Ki =IC50/(1+[L]/KD) where [L] is the concentration of radioligand and KD is its dissociation constant at the receptor, derived from the saturation isotherm. All experiments were performed in duplicate and the mean±standard error (SEM) of the individual Ki values was calculated.

[1] = membranes from HEK293 cells transiently expressing recombinant human NK3 receptor, [3H]SR142801, Ki from IC50 by Cheng-Prussoff, read-out: Ki (uM) hNK3

Sequence of human NK3 receptor (P29371 whole entry): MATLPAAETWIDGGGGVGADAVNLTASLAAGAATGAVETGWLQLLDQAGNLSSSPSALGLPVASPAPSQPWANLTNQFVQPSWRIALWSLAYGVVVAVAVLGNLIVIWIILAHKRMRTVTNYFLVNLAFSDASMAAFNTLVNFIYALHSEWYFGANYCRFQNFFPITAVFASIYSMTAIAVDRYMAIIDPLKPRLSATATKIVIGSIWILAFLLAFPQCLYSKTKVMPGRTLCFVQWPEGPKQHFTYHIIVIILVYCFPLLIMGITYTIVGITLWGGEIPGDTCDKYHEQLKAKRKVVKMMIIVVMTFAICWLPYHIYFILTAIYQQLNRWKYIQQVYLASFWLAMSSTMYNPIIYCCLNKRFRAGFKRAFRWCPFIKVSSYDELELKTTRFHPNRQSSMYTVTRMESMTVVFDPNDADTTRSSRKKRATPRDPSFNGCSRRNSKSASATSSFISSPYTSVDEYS

Row | Compound | Ki [1] | Ki
1 | CC(C)C(=O)N1CCC(C(=O)N2C[C@H](c3ccc(Cl)cc3)[C@@](C)(N(C)C(=O)Oc3ccc(F)cc3)C2)CC1 (racemic) [Example 1, rac-[(3R,4S)-4-(4-Chloro-phenyl)-1-(1-isobutyryl-piperidine-4-carbonyl)-3-methyl-pyrrolidin-3-yl]-methyl-carbamic acid 4-fluoro-phenyl ester] | 0.0105 µM | 
2 | CN(C(=O)Oc1ccc(F)cc1)[C@@]1(C)CN(C(=O)C2CCN(C3CCCCC3)CC2)C[C@@H]1c1ccc(Cl)cc1 (racemic) [Example 2, rac-[(3R,4S)-4-(4-Chloro-phenyl)-1-(1-cyclohexyl-piperidine-4-carbonyl)-3-methyl-pyrrolidin-3-yl]-methyl-carbamic acid 4-fluoro-phenyl ester] |  | 0.0201 µM
3 | CN(C(=O)Oc1ccc(F)cc1)[C@@]1(C)CN(C(=O)c2ccc(C#N)cc2)C[C@@H]1c1ccc(Cl)cc1 (racemic) [Example 3, rac-[(3R,4S)-4-(4-Chloro-phenyl)-1-(4-cyano-benzoyl)-3-methyl-pyrrolidin-3-yl]-methyl-carbamic acid 4-fluoro-phenyl ester] | 0.0678 µM | 
4 | CC(=O)N1CCC(C(=O)N2C[C@H](c3ccc(Cl)cc3)[C@@](C)(N(C)C(=O)Oc3ccc(F)cc3)C2)CC1 (racemic) [Example 4, rac-[(3R,4S)-1-(1-Acetyl-piperidine-4-carbonyl)-4-(4-chloro-phenyl)-3-methyl-pyrrolidin-3-yl]-methyl-carbamic acid 4-fluoro-phenyl ester] | 0.0116 µM | 
5 | CN(C(=O)Oc1ccc(F)cc1)[C@@]1(C)CN(C(=O)C2CCOCC2)C[C@@H]1c1ccc(Cl)cc1 (racemic) [Example 5, rac-[(3R,4S)-4-(4-Chloro-phenyl)-3-methyl-1-(tetrahydro-pyran-4-carbonyl)-pyrrolidin-3-yl]-methyl-carbamic acid 4-fluoro-phenyl ester] | 0.0864 µM | 
6 | Cc1cc(C(=O)N2C[C@H](c3ccc(Cl)cc3)[C@@](C)(N(C)C(=O)Oc3ccc(F)cc3)C2)cnn1 (racemic) [Example 6, rac-[(3R,4S)-4-(4-Chloro-phenyl)-3-methyl-1-(6-methyl-pyridazine-4-carbonyl)-pyrrolidin-3-yl]-methyl-carbamic acid 4-fluoro-phenyl ester] | 0.0649 µM | 
7 | CN(C(=O)Oc1ccc(F)cc1)[C@@]1(C)CN(C(=O)C2CCN(C(=O)C3(C)CC3)CC2)C[C@@H]1c1ccc(Cl)cc1 (racemic) [Example 7, rac-{(3R,4S)-4-(4-Chloro-phenyl)-3-methyl-1-[1-(1-methyl-cyclopropanecarbonyl)-piperidine-4-carbonyl]-pyrrolidin-3-yl}-methyl-carbamic acid 4-fluoro-phenyl ester] | 0.005 µM | 
8 | Cc1ccc(N2CCC(C(=O)N3C[C@H](c4ccc(Cl)cc4)[C@@](C)(N(C)C(=O)Oc4ccc(F)cc4)C3)CC2)nc1 (racemic) [Example 8, rac-[(3R,4S)-4-(4-Chloro-phenyl)-3-methyl-1-(5′-methyl-3,4,5,6-tetrahydro-2H-[1,2′]bipyridinyl-4-carbonyl)-pyrrolidin-3-yl]-methyl-carbamic acid 4-fluoro-phenyl ester] | 0.013 µM | 
9 | CN(C(=O)Oc1ccc(F)cc1)[C@@]1(C)CN(C(=O)C2CCN(c3ccc(C#N)cn3)CC2)C[C@@H]1c1ccc(Cl)cc1 (racemic) [Example 9, rac-[(3R,4S)-4-(4-Chloro-phenyl)-1-(5′-cyano-3,4,5,6-tetrahydro-2H-[1,2′]bipyridinyl-4-carbonyl)-3-methyl-pyrrolidin-3-yl]-methyl-carbamic acid 4-fluoro-phenyl ester] |  | 0.0021 µM
10 | CN(C(=O)Oc1ccc(F)cc1)[C@@]1(C)CN(C(=O)C2CCN(c3ccc(C#N)cc3)CC2)C[C@@H]1c1ccc(Cl)cc1 (racemic) [Example 10, rac-{(3R,4S)-4-(4-Chloro-phenyl)-1-[1-(4-cyano-phenyl)-piperidine-4-carbonyl]-3-methyl-pyrrolidin-3-yl}-methyl-carbamic acid 4-fluoro-phenyl ester] | 0.0038 µM | 
11 | CC(=O)c1ccc(N2CCC(C(=O)N3C[C@H](c4ccc(Cl)cc4)[C@@](C)(N(C)C(=O)Oc4ccc(F)cc4)C3)CC2)nc1 (racemic) [Example 11, rac-[(3R,4S)-1-(5′-Acetyl-3,4,5,6-tetrahydro-2H-[1,2′]bipyridinyl-4-carbonyl)-4-(4-chloro-phenyl)-3-methyl-pyrrolidin-3-yl]-methyl-carbamic acid 4-fluoro-phenyl ester] | 0.0045 µM | 
12 | CN(C(=O)Oc1ccc(F)cc1)[C@@]1(C)CN(C(=O)C2CCN(c3ccc(F)cn3)CC2)C[C@@H]1c1ccc(Cl)cc1 (racemic) [Example 12, rac-[(3R,4S)-4-(4-Chloro-phenyl)-1-(5′-fluoro-3,4,5,6-tetrahydro-2H-[1,2′]bipyridinyl-4-carbonyl)-3-methyl-pyrrolidin-3-yl]-methyl-carbamic acid 4-fluoro-phenyl ester] |  | 0.0076 µM
13 | CN(C(=O)Oc1ccc(F)cc1)[C@@]1(C)CN(C(=O)C2CCN(c3ccc(Cl)cn3)CC2)C[C@@H]1c1ccc(Cl)cc1 (racemic) [Example 13, rac-[(3R,4S)-4-(4-Chloro-phenyl)-1-(5′-chloro-3,4,5,6-tetrahydro-2H-[1,2′]bipyridinyl-4-carbonyl)-3-methyl-pyrrolidin-3-yl]-methyl-carbamic acid 4-fluoro-phenyl ester] | 0.01 µM | 
14 | CN(C(=O)Oc1ccc(F)cc1)[C@@]1(C)CN(C(=O)c2ccc(C#N)nc2)C[C@@H]1c1ccc(Cl)cc1 (racemic) [Example 14, rac-[(3R,4S)-4-(4-Chloro-phenyl)-1-(6-cyano-pyridine-3-carbonyl)-3-methyl-pyrrolidin-3-yl]-methyl-carbamic acid 4-fluoro-phenyl ester] | 0.0774 µM | 
15 | CN(C(=O)Oc1ccc(F)cc1)[C@@]1(C)CN(C(=O)C2CCN(c3ccc(C(F)(F)F)cn3)CC2)C[C@@H]1c1ccc(Cl)cc1 (racemic) [Example 15, rac-[(3R,4S)-4-(4-Chloro-phenyl)-3-methyl-1-(5′-trifluoromethyl-3,4,5,6-tetrahydro-2H-[1,2′]bipyridinyl-4-carbonyl)-pyrrolidin-3-yl]-methyl-carbamic acid 4-fluoro-phenyl ester] | 0.0115 µM | 
16 | CN(C(=O)Oc1ccc(F)cc1)[C@@]1(C)CN(C(=O)c2ccc(-c3ccc(F)cc3)cc2)C[C@@H]1c1ccc(Cl)cc1 (racemic) [Example 16, rac-[(3R,4S)-4-(4-Chloro-phenyl)-1-(4′-fluoro-biphenyl-4-carbonyl)-3-methyl-pyrrolidin-3-yl]-methyl-carbamic acid 4-fluoro-phenyl ester] |  | 0.3 µM
17 | Cc1nc(-c2ccc(C(=O)N3C[C@H](c4ccc(Cl)cc4)[C@@](C)(N(C)C(=O)Oc4ccc(F)cc4)C3)cc2)no1 (racemic) [Example 17, rac-{(3R,4S)-4-(4-Chloro-phenyl)-3-methyl-1-[4-(5-methyl-[1,2,4]oxadiazol-3-yl)-benzoyl]-pyrrolidin-3-yl}-methyl-carbamic acid 4-fluoro-phenyl ester] | 0.0354 µM | 
18 | CN(C(=O)Oc1ccc(F)cc1)[C@@]1(C)CN(C(=O)C2CCN(c3ccc(C#N)nc3)CC2)C[C@@H]1c1ccc(Cl)cc1 (racemic) [Example 18, rac-[(3R,4S)-4-(4-Chloro-phenyl)-1-(6′-cyano-3,4,5,6-tetrahydro-2H-[1,3′]bipyridinyl-4-carbonyl)-3-methyl-pyrrolidin-3-yl]-methyl-carbamic acid 4-fluoro-phenyl ester] | 0.0028 µM | 
